In patent US20120122780A1 (Ardea Biosciences Inc., priority 2009, published 2012):

Target: T1, hURAT1 Transporter (Homo sapiens, UniProt Q96S37)
T1 construct: Full-length human URAT1 gene (SLC22Al2) was subcloned from plasmid pCMV6-XL5 (Origene) into eukaryotic expression plasmid pCMV6/Neo; expressed in transfected cells
T1 sequence (Q96S37 1-553): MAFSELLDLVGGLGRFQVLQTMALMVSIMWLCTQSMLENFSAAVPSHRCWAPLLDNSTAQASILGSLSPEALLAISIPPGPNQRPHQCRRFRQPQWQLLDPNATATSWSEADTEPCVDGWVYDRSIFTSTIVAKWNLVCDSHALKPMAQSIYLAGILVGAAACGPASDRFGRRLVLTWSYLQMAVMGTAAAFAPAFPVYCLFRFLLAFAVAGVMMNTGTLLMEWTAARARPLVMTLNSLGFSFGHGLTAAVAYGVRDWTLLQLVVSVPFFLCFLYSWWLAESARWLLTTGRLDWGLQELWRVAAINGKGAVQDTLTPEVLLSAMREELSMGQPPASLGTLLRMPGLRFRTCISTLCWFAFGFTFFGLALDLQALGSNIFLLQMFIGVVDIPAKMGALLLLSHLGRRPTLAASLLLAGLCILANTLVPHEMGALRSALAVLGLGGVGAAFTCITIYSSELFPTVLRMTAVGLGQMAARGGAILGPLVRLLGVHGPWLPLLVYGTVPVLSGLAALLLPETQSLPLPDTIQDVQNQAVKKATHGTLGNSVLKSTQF
Test: Uric Acid Uptake Assay (URAT-1 EC50)
Type: cell-based
Settings: HEK293/urat1 cells, C14 uric acid 40 μM, 10 minutes at room temperature
Description: Creation of Stable Cell Lines Expressing hURAT1 Transporter: Full-length human URAT1 gene (SLC22Al2) was subcloned from plasmid pCMV6-XL5 (Origene) into eukaryotic expression plasmid pCMV6/Neo (Origene) using Not I restriction sites. Gene sequencing confirmed the sequence of hURAT1 as outlined in Genbank (Accession #NM_144585.2). HEK293 human embryonic kidney cells (ATCC# CRL-1573) were propagated in EMEM tissue culture medium as described by ATCC in an atmosphere of 5% CO2 and 95% air. Transfections of HEK293 cells with the pCMV6/Neo/URAT1 construct were performed using L2000 transfection reagent (Invitrogen) as described by the manufacturer. After 24 h the transfected cells were split into 10 cm tissue culture plates and grown for 1 day after which the medium was replaced with fresh growth medium containing G418 (Gibco) at 0.5 mg/ml final concentration. Drug-resistant colonies were selected after approximately 8 days and then tested for ^14C-uric acid transport activity. The HEK293/urat1 cells are plated on Poly-D-Lysine Coated 96-well Plates at a density of 75,000 cells per well. Cells were grown overnight (20-26 hours) at 37° C. in an incubator. Plates were allowed to come to room temperature and media was washed out with one wash of 250 μl of Wash Buffer (125 mM Na Gluconate, 10 mM Hepes ph 7.3). Compound or vehicle is added in assay buffer with C14 Uric Acid for a final concentration of 40 μM Uric Acid with a specific activity of 54 mCi/mmol Assay Buffer is 125 mM Sodium Gluconate, 4.8 mM Potassium Gluconate, 1.2 mM Potassium phosphate, monobasic, 1.2 mM magnesium sulfate, 1.3 mM Ca Gluconate, 5.6 mM Glucose, 25 mM HEPES, pH 7.3. Plates were incubated at room temperature for 10 minutes then washed 3 times with 50 μWash Buffer and 3 times with 250 μl Wash Buffer. Microscint 20 Scintillation Fluid was added and plates were incubated overnight at 45° C. to equilibrate. Plates are then read on the TopCount Plate Reader and an EC50 value generated. (See Enomoto et al, Nature, 2002, 417, 447-451 and Anzai et al, J. Biol. Chem., 2004, 279, 45942-45950.)
Compounds prepared as described above, were examined according to the procedure described herein and EC50 values generated. The table below summarizes the activity of the compounds in the Uric Acid Uptake Assay, wherein

**Q.** Which EC50 does the source give for `CC(C)(Oc1nnnn1-c1cccc2ccccc12)C(=O)O` [Example 6-3] here?
**A.** The EC50 was over 20 µM.

**Q.** How did the EC50 turn out when `CCOC(=O)CSc1nnnn1-c1cccc2ccccc12` [6-1 (step C), Ethyl 2-(1-(naphthalen-1-yl)-1H-tetrazol-5-ylthio) acetate] was run?
**A.** Its EC50 is 5 to 20 µM.

**Q.** `O=C(O)CSc1cnnn1-c1cccc2ccccc12` [Example 5A-1] was tested. Which EC50 did it give?
**A.** The EC50 was over 20 µM.

**Q.** With `O=C(O)CSc1nnnn1-c1cccc2ccccc12` [6-1 (step D), 2-(1-(naphthalen-1-yl)-1H-tetrazol-5-ylthio)acetic acid] as the molecule, how does the EC50 read?
**A.** Its EC50 is over 20 µM.
